Source: patent publication US20050148653A1, “Polymaleimide compounds and their medical use” (priority 2001, published 2005)

Assays:
[1] = system: HIV (IHV-1RF); assay: Anti-viral (virucidal) assay: plate-bound HIV treated 10 minutes, C8166 cells added, syncytium score and XTT; type: cell-based; details: for Syncytia score day 5 (quadruplicate wells) / Syncytia score day 6 (quadruplicate wells): C8166 cells; for Mean Optical Readings at 450 nm: XTT cell viability; for Syncytia score day 6 (quadruplicate wells) / Mean Optical Readings at 450 nm / IC50: day 6; for IC50: Human immunodeficiency virus 1, C8166, XTT, virus treated 10 minutes, read-out: IC50 (virucidal)
Procedure: HIV was attached to the surface of 96-well cell culture plates using 100 μl of 50 μg/ml poly-L-lysine hydrobromide (PLL) of molecular weight >300 K for 1 h at RT. The outer wells were left uncoated and filled with 250 μl of PBS to counteract the effects of evaporation. The coated wells were washed twice with PBS and 25 μl of RPMI 1640 medium containing 5×10^3 TCID50 of IHV-1RF was added and incubated for 1 h at RT. The wells were then washed twice with PBS and 25 μl of varying concentrations of the test compounds made up with serum free medium (containing a constant 10% DMSO) were added to the wells in quadruplicate and the plates incubated at 37° C. for 10 minutes. The wells were again washed twice with PBS and 5×10^4 C8166 cells in a volume of 300 μl distributed to each well and the plates incubated for 5 and 6 days respectively. On days 5 and 6 the cells were assessed microscopically for the presence of cytopathic effect (syncytium formation) and recorded. In order to quantify the cytopathic effect, XIT which is metabolised by viable but not dead cells, was added and the absorbance read at 450 nm after […] incubation at 37° C.
An assessment of viral cytopathic effect was made microscopically on days 5 and 6, but the end point of the experiment was on day 6 when the level of virus infection (as determined by cell viability) was quantified by the use of XTT.

[2] = system: Chlamydia trachomatis; assay: Chlamydia assay: transient treatment of Chlamydia with maleimides, infection of McCoy cells, iodine-stained inclusions counted; type: cell-based; details: for IODINE-STAINED INCLUSIONS/FIELD F1: field 1; for IODINE-STAINED INCLUSIONS/FIELD F2: field 2; for IODINE-STAINED INCLUSIONS/FIELD F3: field 3; for IODINE-STAINED INCLUSIONS/FIELD F4: field 4; for IODINE-STAINED INCLUSIONS/FIELD F5: field 5; for MEAN COUNT/FIELD (iodine-stained inclusions): mean of 5 fields; for COMMENTS: inclusions seen on entire coverslip: re-examined under low power; for TOTAL COUNT/FIELDS (iodine-stained inclusions): sum of 5 fields; for inhibition of the infection of McCoy cells with chlamydia: transient exposure of chlamydia to compound
Procedure: Purified Chlamydia trachomatis (250 μl) was added to 250 μl of each compound concentration and the mixtures incubated at room temperature for 5 minutes. The tubes were then centrifuged (15000 rpm, 15 minutes), the supernatant decanted and the pellet washed serum free MEM (with 0.5 mls). This step was repeated and the resultant pellet resuspended MEM (in 0.5 ml) and inoculated into a confluent shell vial (coverslip) cultures of McCoy cells. The cultures were centrifuged (3000 rpm, 1 hour at 37° C.) and incubated for a further 2 hours prior to being changed onto MEM with 10% foetal calf serum, I μg/rl cycloheximide, 0.5% added glucose, vancomycin, streptomycin and amphoteracin B (Fungizone). The cultures were incubated for 68 hours, fixed in methanol and stained with Lugol's iodine. 3 replicates of each positive control (with and without DMSO) were included, as well as 2 uninoculated cell controls. Each coverslip culture was examined using low power (10×) objective to ensure that inclusions were evenly distributed and 5 high power (×40) fields were selected at random from different areas of the coverslip. Iodine stained inclusions were counted. Where no inclusions were seen on high power, the culture was re-examined under low power. Table 1. Effect of Transient Treatment with maleimides on Chlamydia Infection of McCoy Cell In Vitro. Chlamydia was pre-treated with each of the indicated maleimides for 5 minutes and the compound removed by centrifugation. McCoy cells were then exposed to the compound pre-treated chlamydia for 68 hours and inclusions counted following staining of cells with Lugols iodine.

[3] = final conc 0.02 (M), working conc 0.04 (M)
[4] = final conc 0.4 (M), working conc 0.8 (M)
[5] = final conc 1 (M), working conc 2 (M), 5 minutes pre-treatment, McCoy cells 68 hours
[6] = final conc 1 (M), working conc 2 (M)

O=C1C=CC(=O)N1CCN1C(=O)C=CC1=O [Compound 1, ethyl bis-maleimide]
Syncytia score day 5 (quadruplicate wells) ([1]; Conc 0.003 mM): ++++ (50-100% syncytia) | Syncytia score day 6 (quadruplicate wells) ([1]; Conc 0.003 mM): ++++ (50-100% syncytia) | Mean Optical Readings at 450 nm ([1]; Conc 0.003 mM): 0.4875 | Syncytia score day 5 (quadruplicate wells) ([1]; Conc 0.01 mM): ++++ (50-100% syncytia) | Syncytia score day 6 (quadruplicate wells) ([1]; Conc 0.01 mM): ++++ (50-100% syncytia) | Mean Optical Readings at 450 nm ([1]; Conc 0.01 mM): 0.5028 | Syncytia score day 5 (quadruplicate wells) ([1]; Conc 0.03 mM): ++++ (50-100% syncytia) | Syncytia score day 6 (quadruplicate wells) ([1]; Conc 0.03 mM): ++++ (50-100% syncytia) | Mean Optical Readings at 450 nm ([1]; Conc 0.03 mM): 0.5142 | Syncytia score day 5 (quadruplicate wells) ([1]; Conc 0.1 mM): ++++ (50-100% syncytia) | Syncytia score day 6 (quadruplicate wells) ([1]; Conc 0.1 mM): ++++ (50-100% syncytia) | Mean Optical Readings at 450 nm ([1]; Conc 0.1 mM): 0.5347 | Syncytia score day 5 (quadruplicate wells) ([1]; Conc 0.3 mM): +++ (25-50% syncytia) | Syncytia score day 6 (quadruplicate wells) ([1]; Conc 0.3 mM): +++ (25-50% syncytia) | Mean Optical Readings at 450 nm ([1]; Conc 0.3 mM): 0.5853 | Mean Optical Readings at 450 nm ([1]; Conc 1 mM): 1.181 | IC50 [1]: 1000 µM | IODINE-STAINED INCLUSIONS/FIELD F1 [2, 3]: 0 inclusions/field | IODINE-STAINED INCLUSIONS/FIELD F2 [2, 3]: 0 inclusions/field | IODINE-STAINED INCLUSIONS/FIELD F3 [2, 3]: 0 inclusions/field | IODINE-STAINED INCLUSIONS/FIELD F4 [2, 3]: 0 inclusions/field | IODINE-STAINED INCLUSIONS/FIELD F5 [2, 3]: 0 inclusions/field | MEAN COUNT/FIELD (iodine-stained inclusions) [2, 3]: 0 inclusions/field | COMMENTS: inclusions seen on entire coverslip [2, 3]: 6 inclusions | TOTAL COUNT/FIELDS (iodine-stained inclusions) [2, 3]: 0 | IODINE-STAINED INCLUSIONS/FIELD F1 [2, 4]: 0 inclusions/field | IODINE-STAINED INCLUSIONS/FIELD F2 [2, 4]: 0 inclusions/field | IODINE-STAINED INCLUSIONS/FIELD F3 [2, 4]: 0 inclusions/field | IODINE-STAINED INCLUSIONS/FIELD F4 [2, 4]: 0 inclusions/field | IODINE-STAINED INCLUSIONS/FIELD F5 [2, 4]: 0 inclusions/field | MEAN COUNT/FIELD (iodine-stained inclusions) [2, 4]: 0 inclusions/field | COMMENTS: inclusions seen on entire coverslip [2, 4]: No | TOTAL COUNT/FIELDS (iodine-stained inclusions) [2, 4]: 0 | IODINE-STAINED INCLUSIONS/FIELD F1 [2, 5]: 0 inclusions/field | IODINE-STAINED INCLUSIONS/FIELD F2 [2, 6]: 0 inclusions/field | IODINE-STAINED INCLUSIONS/FIELD F3 [2, 6]: 0 inclusions/field | IODINE-STAINED INCLUSIONS/FIELD F4 [2, 6]: 0 inclusions/field | IODINE-STAINED INCLUSIONS/FIELD F5 [2, 6]: 0 inclusions/field | MEAN COUNT/FIELD (iodine-stained inclusions) [2, 6]: 0 inclusions/field | COMMENTS: inclusions seen on entire coverslip [2, 6]: No | TOTAL COUNT/FIELDS (iodine-stained inclusions) [2, 6]: 0 | inhibition of the infection of McCoy cells with chlamydia [2]: dose-dependent inhibition

COCCOCCOCCOCCOc1ccc(N2C(=O)C=CC2=O)cc1 [Compound 3, PEG(5) phenyl maleimide]
Syncytia score day 5 (quadruplicate wells) ([1]; Conc 0.003 mM): ++++ (50-100% syncytia) | Syncytia score day 6 (quadruplicate wells) ([1]; Conc 0.003 mM): ++++ (50-100% syncytia) | Mean Optical Readings at 450 nm ([1]; Conc 0.003 mM): 0.5018 | Syncytia score day 5 (quadruplicate wells) ([1]; Conc 0.01 mM): +++ (25-50% syncytia) | Syncytia score day 6 (quadruplicate wells) ([1]; Conc 0.01 mM): ++++ (50-100% syncytia) | Mean Optical Readings at 450 nm ([1]; Conc 0.01 mM): 0.5085 | Syncytia score day 5 (quadruplicate wells) ([1]; Conc 0.03 mM): +++ (25-50% syncytia) | Syncytia score day 6 (quadruplicate wells) ([1]; Conc 0.03 mM): ++++ (50-100% syncytia) | Mean Optical Readings at 450 nm ([1]; Conc 0.03 mM): 0.5012 | Syncytia score day 5 (quadruplicate wells) ([1]; Conc 0.1 mM): +++ (25-50% syncytia) | Syncytia score day 6 (quadruplicate wells) ([1]; Conc 0.1 mM): ++++ (50-100% syncytia) | Mean Optical Readings at 450 nm ([1]; Conc 0.1 mM): 0.5118 | Syncytia score day 5 (quadruplicate wells) ([1]; Conc 0.3 mM): +++ (25-50% syncytia) | Syncytia score day 6 (quadruplicate wells) ([1]; Conc 0.3 mM): ++++ (50-100% syncytia) | Mean Optical Readings at 450 nm ([1]; Conc 0.3 mM): 0.5092 | Syncytia score day 5 (quadruplicate wells) ([1]; Conc 1 mM): +++ (25-50% syncytia) | Syncytia score day 6 (quadruplicate wells) ([1]; Conc 1 mM): +++ (25-50% syncytia) | Mean Optical Readings at 450 nm ([1]; Conc 1 mM): 0.5268 | IC50 [1]: > 1000 µM | virucidal activity ([1]; at concentrations up to 1.0 mM): no virucidal activity | activity relative to bis maleimide equivalent ([2]; chlamydia infection of McCoy cells): less active than its PEG bis (phenyl maleimide) equivalent | IODINE-STAINED INCLUSIONS/FIELD F1 [2, 3]: 12 inclusions/field | IODINE-STAINED INCLUSIONS/FIELD F2 [2, 3]: 24 inclusions/field | IODINE-STAINED INCLUSIONS/FIELD F3 [2, 3]: 9 inclusions/field | IODINE-STAINED INCLUSIONS/FIELD F4 [2, 3]: 29 inclusions/field | IODINE-STAINED INCLUSIONS/FIELD F5 [2, 3]: 22 inclusions/field | MEAN COUNT/FIELD (iodine-stained inclusions) [2, 3]: 19 inclusions/field | TOTAL COUNT/FIELDS (iodine-stained inclusions) [2, 3]: 96 | IODINE-STAINED INCLUSIONS/FIELD F1 [2, 4]: 4 inclusions/field | IODINE-STAINED INCLUSIONS/FIELD F2 [2, 4]: 7 inclusions/field | IODINE-STAINED INCLUSIONS/FIELD F3 [2, 4]: 5 inclusions/field | IODINE-STAINED INCLUSIONS/FIELD F4 [2, 4]: 8 inclusions/field | IODINE-STAINED INCLUSIONS/FIELD F5 [2, 4]: 4 inclusions/field | MEAN COUNT/FIELD (iodine-stained inclusions) [2, 4]: 6 inclusions/field | TOTAL COUNT/FIELDS (iodine-stained inclusions) [2, 4]: 28 | IODINE-STAINED INCLUSIONS/FIELD F1 [2, 5]: 0 inclusions/field | IODINE-STAINED INCLUSIONS/FIELD F2 [2, 6]: 0 inclusions/field | IODINE-STAINED INCLUSIONS/FIELD F3 [2, 6]: 0 inclusions/field | IODINE-STAINED INCLUSIONS/FIELD F4 [2, 6]: 0 inclusions/field | IODINE-STAINED INCLUSIONS/FIELD F5 [2, 6]: 0 inclusions/field | MEAN COUNT/FIELD (iodine-stained inclusions) [2, 6]: 0 inclusions/field | COMMENTS: inclusions seen on entire coverslip [2, 6]: 15 | TOTAL COUNT/FIELDS (iodine-stained inclusions) [2, 6]: 0 | inhibition of the infection of McCoy cells with chlamydia [2]: dose-dependent inhibition
